From patent publication US9447081B2, “Substituted pyrimidines as pharmaceuticals and insecticides” (SHENYANG SINOCHEM AGROCHEMICALS R&D CO., LTD., priority 2012, dated 2016)

Legend:
cucumber gray mold = assay: Fungicidal activity in vitro (96-well, High Through Put), cucumber gray mold; format: cell-based; conditions: 25 mg/L, 24 hours; for inhibition at 25 µg/mL: read-out: inhibition rate against cucumber gray mold
wheat powdery mildew = assay: Protectant activity in vivo (whole plant), wheat powdery mildew
Procedure: (§1) The method is as followed: The whole plant is used in this test. The compound is dissolved in a proper solvent to get mother solution. The proper solvent is selected from acetone, methanol, DMF and so on according to their dissolving capability to the sample. […] The testing solution is sprayed to the host plant by a special plant sprayer. The plant is inoculated with fungus after 24 hours. According to the infecting characteristic of fungus, the plant is stored in a humidity chamber and then transferred into greenhouse after infection is finished. And the other plants are placed in greenhouse directly. The activity of compound is obtained by eyeballing after 7 days in common.

diamond back moth = assay: Insecticidal activity against diamond back moth (airbrush spray); format: in vivo; conditions: mortality after 72 h; for pest or weed control at 600 µg/mL: read-out: control of the second instar larvae of diamond back moth
Procedure: (§2) Compounds were dissolved in mixed solvent (acetone:methanol=1:1), and diluted to required concentration with water containing 0.1% of tween 80.
(§3) Diamond back moth, armyworm, Green Peach Aphid and carmine spider mite were used as targets and the method of spraying by airbrush was used for determination of insecticidal biassays.
(§4) The method of spraying by airbrush: The cabbage leaves were made into plates of 2 cm diameter by use of punch. A test solution (0.5 ml) was sprayed by airbrush at the pressure of 0.7 kg/cm^2 to both sides of every plate. 10 Second instar larvae were put into the petri-dishes after the leaf disc air-dried and 3 replicates were set for each treatment. Then the insects were maintained in observation room (25° C., 60˜70% R.H.). Scores were conducted and mortalities were calculated after 72 h.

[1] = test system: Green peach aphids (Myzus Persicae Sulzer); assay: Activity against green peach aphid (airbrush foliar spray); format: in vivo; conditions: death rate after 48 h; for pest or weed control at 600 µg/mL / pest or weed control at 10 µg/mL / pest or weed control at 100 µg/mL: Myzus persicae, foliar, 48 h; for pest or weed control at 600 µg/mL / pest or weed control at 100 µg/mL: read-out: Insecticidal activity against peach aphid (control); for pest or weed control at 10 µg/mL / Insecticidal activity against peach aphid: 10 mg/L; for pest or weed control at 10 µg/mL: read-out: Insecticidal activity against peach aphid
Procedure: as §2, §3
Method: Filter papers were put in culture dishes (Diameter=6 cm), and water was dripped on filter papers for preserving moisture. Green peach aphids (Myzus Persicae Sulzer) were maintained on cabbage. Leaves (Diameter=3 cm) of approximately 15-30 aphids were put in the culture dishes. Bioactivity tests were used the method of Airbrush Foliar Spray, pressure=10 psi (0.7 kg/cm2), spray volume=0.5 mL. The studies were conducted at three constant temperatures 25±1 C. in incubator cabinets with 60±5% RH. Survey the survival aphids after 48 h and calculate the death rates.

armyworm = assay: Insecticidal activity against armyworm (airbrush spray); format: in vivo; conditions: second instar larvae, mortality after 72 h
Procedure: as §2, §3
as §4, with “corn” for “cabbage”

carmine spider mite = assay: Acaricidal activity against carmine spider mite (airbrush spray); format: in vivo; conditions: Tetranychus cinnabarinus; 100 mg/L, adults, mortality after 72 hrs
Procedure: as §2, §3
Method: Broadbean shoots with two true leaves in pot were taken, the healthy adults of carmine spider mite were inoculated to the leaves. The adults were counted and then sprayed with airbrush at the pressure of 0.7 kg/cm^2 and at dose of 0.5 ml. 3 replicates were set for each treatment. And then they were maintained in standard observation room. Scores were conducted and mortalities were calculated after 72 hrs.

corn rust = assay: Protectant activity in vivo (whole plant), corn rust; conditions: for pest or weed control at 400 µg/mL / pest or weed control at 100 µg/mL / pest or weed control at 25 µg/mL: Zea mays, 168 h, read-out: protectant activity against corn rust
Procedure: as §1

cucumber downy mildew = assay: Protectant activity in vivo (whole plant), cucumber downy mildew
Procedure: as §1

rice blast = assay: microbe, parasite or virus in culture; format: cell-based
[2] = test system: human bladder cancer cell line T24; assay: In vitro cell inhibition assay against human cancer cell T24; format: cell-based; conditions: 10 μM, incubation for one week, crystal violet
Procedure: The tested compounds are dissolved in DMSO and diluted to designed concentration with culture medium.
The of cell culture technology in vitro was selected to evaluate growth inhibition rate against human bladder cancer cell line T24. 1000 to 3000 cells were inoculated into 24-well plate, followed by addition of cell culture medium (1 mL) known for technicans in this field (culture medium is RMPI-1640), after cells were cultured in incubator (CO2 5%, 37° C.) for 24 hours, then the tested compounds with designed concentration were added to each well. […] After incubation for one week, the culture medium was removed, the plate wells were washed with cold PBS once, fixed with 1% formalin at room temperature for 10 minutes, and washed with cold PBS one more time, followed by stain with 0.1% crystal violet for 30 minutes. Crystal violet can be recycled. The stained cells were washed with deionized water gently, dried in the air and reserved, were then incubated for 4 h. The inhibition rate was calculated according to the left cells of each treatment and contrast.
The inhibition rate=the left cells of each treatment/the left cells of contrast×100%

[3] = Triticum aestivum, 168 h, 400 mg/L, read-out: protectant activity against wheat powdery mildew
[4] = Cucumis sativus, 168 h, 400 mg/L, read-out: protectant activity against cucumber downy mildew
[5] = Pyricularia oryzae, 24 h, read-out: inhibition rate against rice blast
[6] = Triticum aestivum, 168 h, 25 mg/L, read-out: protectant activity against wheat powdery mildew
[7] = Triticum aestivum, 168 h, 100 mg/L, read-out: protectant activity against wheat powdery mildew
[8] = Cucumis sativus, 168 h, 100 mg/L, read-out: protectant activity against cucumber downy mildew

| SMILES | inhibition at 25 µg/mL (cucumber gray mold) | pest or weed control at 400 µg/mL (wheat powdery mildew; [3]) | pest or weed control at 600 µg/mL (diamond back moth; 600 mg/L) | pest or weed control at 600 µg/mL ([1]; 600 mg/L) | pest or weed control at 600 µg/mL (armyworm; 600 mg/L) | pest or weed control at 100 µg/mL (carmine spider mite) | pest or weed control at 400 µg/mL (corn rust; 400 mg/L) | pest or weed control at 400 µg/mL (cucumber downy mildew; [4]) | inhibition at 25 µg/mL (rice blast; [5]) | pest or weed control at 100 µg/mL (corn rust; 100 mg/L) | pest or weed control at 100 µg/mL ([1]; 100 mg/L) | further results |
| --- | --- | --- | --- | --- | --- | --- | --- | --- | --- | --- | --- | --- |
| c1ccc2c(NCCc3ccc4c(c3)OCO4)ncnc2c1 [ACTA-1] | 50% | 0% | 40% | 0% | 40% | 0% | 0% |  |  |  |  |  |
| COc1cc(CNc2ncnc(C)c2Cl)ccc1O [CK3] | 0% | 0% | 0% | 0% | 0% | 0% | 0% | 0% |  |  |  |  |
| Cc1ncnc(NCCc2ccc(O)cc2)c1Cl [CK4] | 0% | 0% | 0% | 0% | 0% | 0% | 0% | 0% | 0% |  |  |  |
| COc1ccc(CCNc2ncnc(C)c2Cl)cc1OC [CK8] | 0% | 100% | 0% | 0% | 0% |  | 100% | 98% | 50% | 0% |  | pest or weed control at 6.25 µg/mL (wheat powdery mildew; Triticum aestivum, 168 h, 6.25 mg/L, read-out: protectant activity against wheat powdery mildew): 0%; pest or weed control at 25 µg/mL (wheat powdery mildew; [6]): 10%; pest or weed control at 100 µg/mL (wheat powdery mildew; [7]): 80%; pest or weed control at 25 µg/mL (cucumber downy mildew; Cucumis sativus, 168 h, 25 mg/L, read-out: protectant activity against cucumber downy mildew): 0%; pest or weed control at 50 µg/mL (cucumber downy mildew; Cucumis sativus, 168 h, 50 mg/L, read-out: protectant activity against cucumber downy mildew): 20%; pest or weed control at 100 µg/mL (cucumber downy mildew; [8]): 45% |
| Cc1c(Cl)c(NCCc2ccc3c(c2)OCO3)nc[n+]1CC(=O)c1ccc(Cl)cc1 [CK10] | 0% | 0% | 0% | 0% | 0% | 0% | 0% | 0% | 0% |  |  |  |
| ClCc1ncnc(NCCc2ccc3c(c2)OCO3)c1Cl [CK11] | 50% | 0% | 0% | 88% | 0% | 25% | 85% | 30% |  | 35% | 0% | pest or weed control at 10 µg/mL [1]: 0%; pest or weed control at 100 µg/mL (cucumber downy mildew; [8]): 0%; pest or weed control at 25 µg/mL (corn rust; 25 mg/L): 0% |
| c1ccc2c(NCc3ccc4c(c3)OCO4)ncnc2c1 [CK13] | 0% | 0% | 0% | 50% | 0% | 0% | 40% | 0% | 0% | 0% | 0% | pest or weed control at 10 µg/mL [1]: 0% |
| Cc1ncnc(NCCc2ccc3c(c2)OCO3)c1Cl [Compound 5] |  |  |  |  |  |  |  |  |  |  |  | protectant activity against wheat powdery mildew (wheat powdery mildew; 6.25 mg/L): 75%; protectant activity against wheat powdery mildew (wheat powdery mildew; 25 mg/L): 85%; protectant activity against wheat powdery mildew (wheat powdery mildew; 100 mg/L): 100%; protectant activity against wheat powdery mildew (wheat powdery mildew; 400 mg/L): 100%; Insecticidal activity against peach aphid [1]: 0%; Insecticidal activity against peach aphid (control) ([1]; 100 mg/L): 52%; Insecticidal activity against peach aphid (control) ([1]; 600 mg/L): 100%; protectant activity against cucumber downy mildew (cucumber downy mildew; 12.5 mg/L): 100%; protectant activity against cucumber downy mildew (cucumber downy mildew; 25 mg/L): 100%; protectant activity against cucumber downy mildew (cucumber downy mildew; 50 mg/L): 100%; protectant activity against cucumber downy mildew (cucumber downy mildew; 100 mg/L): 100%; protectant activity against cucumber downy mildew (cucumber downy mildew; 400 mg/L): 100%; inhibition rate against rice blast (rice blast; in vitro, 25 mg/L, 24 hours): 80%; protectant activity against corn rust (corn rust; 6.25 mg/L): 100%; protectant activity against corn rust (corn rust; 25 mg/L): 100%; protectant activity against corn rust (corn rust; 100 mg/L): 100%; protectant activity against corn rust (corn rust; 400 mg/L): 100%; inhibition rate against bladder cancer cell line T24 [2]: 100% |
| CCc1ncnc(NCCc2ccc3c(c2)OCO3)c1Cl [Compound 6] |  |  |  |  |  |  |  |  |  |  |  | inhibition rate against cucumber gray mold (cucumber gray mold): 80%; protectant activity against wheat powdery mildew (wheat powdery mildew; 6.25 mg/L): 85%; protectant activity against wheat powdery mildew (wheat powdery mildew; 25 mg/L): 90%; protectant activity against wheat powdery mildew (wheat powdery mildew; 100 mg/L): 95%; protectant activity against wheat powdery mildew (wheat powdery mildew; 400 mg/L): 100%; control of the second instar larvae of diamond back moth (diamond back moth; 100 mg/L): 90%; control of the second instar larvae of diamond back moth (diamond back moth; 600 mg/L): 100%; Insecticidal activity against peach aphid [1]: 100%; Insecticidal activity against peach aphid (control) ([1]; 100 mg/L): 100%; Insecticidal activity against peach aphid (control) ([1]; 600 mg/L): 100%; control of the armyworm (armyworm; 100 mg/L): 90%; control of the armyworm (armyworm; 600 mg/L): 90%; protectant activity against corn rust (corn rust; 6.25 mg/L): 90%; protectant activity against corn rust (corn rust; 25 mg/L): 100%; protectant activity against corn rust (corn rust; 100 mg/L): 100%; protectant activity against corn rust (corn rust; 400 mg/L): 100%; inhibition rate against bladder cancer cell line T24 [2]: 100% |
| Cc1ncnc(NC(C)c2ccc3c(c2)OC(F)(F)O3)c1Cl (stereo not shown) [PC-1] | 50% | 100% | 0% | 52% | 0% | 51% | 70% |  |  | 20% | 0% | pest or weed control at 25 µg/mL (wheat powdery mildew; [6]): 0%; pest or weed control at 100 µg/mL (wheat powdery mildew; [7]): 80%; inhibition at 8.3 µg/mL (rice blast; [5]): 0%; pest or weed control at 25 µg/mL (corn rust; 25 mg/L): 0% |
